Consider 12 compounds from patent US20240228489A1, “POSITIVE ALLOSTERIC MODULATORS OF THE MUSCARINIC ACETYLCHOLINE RECEPTOR M1” (Vanderbilt University, priority 2021, published 2024).

What is called EC50 is the concentration giving half of the maximal effect. One may read the Emax as the size of the effect at its maximum, as opposed to the concentration needed.

Where only a bound is given, the exact number is not on record here.

The target of experiment [1] is T1, human mAChR M1 (Homo sapiens, UniProt P11229).
T1 sequence (P11229 1-460): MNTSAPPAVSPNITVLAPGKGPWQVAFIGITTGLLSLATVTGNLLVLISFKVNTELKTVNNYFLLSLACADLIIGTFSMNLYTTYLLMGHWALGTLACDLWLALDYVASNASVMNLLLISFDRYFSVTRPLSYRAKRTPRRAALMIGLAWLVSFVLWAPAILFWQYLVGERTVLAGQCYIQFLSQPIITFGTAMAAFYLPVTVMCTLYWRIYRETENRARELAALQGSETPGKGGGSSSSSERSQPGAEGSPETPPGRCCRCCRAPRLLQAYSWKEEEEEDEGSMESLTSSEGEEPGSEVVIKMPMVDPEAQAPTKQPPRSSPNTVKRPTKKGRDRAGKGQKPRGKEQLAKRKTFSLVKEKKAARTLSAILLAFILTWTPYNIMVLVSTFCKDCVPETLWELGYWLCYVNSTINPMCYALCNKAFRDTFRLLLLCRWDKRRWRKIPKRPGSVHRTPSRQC
Kind of experiment: mAChR M1 cell-based functional assay (calcium mobilization), PAM mode: increase in the EC20 acetylcholine response. In short, it runs like this: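 PAM readout is the concentration-dependent rise in the EC20 acetylcholine calcium signal, fitted to a four-parameter logistic (EC50, Emax). Compounds were preincubated from 4 s before ACh at 144 s (EC20) and 230 s (EC80). hM1-expressing CHO-K1 cells loaded with Fluo-4, FDSS ratio read.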
For orientation: Calcium flux is commonly read through the fluorescence of an indicator in the cells.

Experiment [2] has as its target T1, human mAChR M1. Nature of the experiment: mAChR M1 cell-based functional assay (calcium mobilization), agonist mode: compound alone, Emax relative to acetylcholine maximum. To be noted: for Agonist Activity Human M1 EC50 / EC50: human mAChR M1; for Emax: relative to the maximum for acetylcholine. In short, it runs like this:
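Agonist activity is the concentration-dependent rise in intracellular calcium (Fluo-4, 1 Hz read) after compound addition, measured before any acetylcholine was added, in stable hM1 CHO-K1 cells. Curves were 11-point, 1:3 dilutions fitted by four-parameter logistic. Emax is given as a fraction of maximal acetylcholine response.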

Regarding `[2H]C1([2H])c2ncccc2C(=O)N1Cc1c(F)cc(-c2ccc(OC(F)(F)F)c3c2cnn3C([2H])([2H])[2H])cc1F` [Compound 251, 6-(2,6-difluoro-4-(1-(methyl-d3)-7-(trifluoromethoxy)-1H-indazol-4-yl)benzyl)-6,7-dihydro-5H-pyrrolo[3,4-b]pyridin-5-one-7,7-d2], at human mAChR M1 [1], the 50% effective concentration (EC50) is over 10000 nM and the maximal effect (Emax) stood at 12%. In addition, at human mAChR M1 [2], the “Agonist Activity Human M1 EC50” value was “Inactive” and the Emax is 2%.

As to `[2H]C1([2H])c2ncccc2C(=O)N1Cc1c(F)cc(-c2ccc(OCc3ccccc3)c3nn(C)cc23)cc1F` [Compound 129, 6-(4-(7-(benzyloxy)-2-methyl-2H-indazol-4-yl)-2,6-difluorobenzyl)-6,7-dihydro-5H-pyrrolo[3,4-b]pyridin-5-one-7,7-d2], on human mAChR M1 [1], the EC50 came out at 1760 nM and the Emax was 65%. For the same compound, at human mAChR M1 [2], the “Agonist Activity Human M1 EC50” value is reported as “Inactive” and the Emax turned out to be 1%.

Turning to `[2H]C1([2H])c2ncccc2C(=O)N1Cc1c(F)cc(-c2ccc(Cl)c3nn(C)cc23)cc1F` [Compound 40, 6-(4-(7-chloro-2-methyl-2H-indazol-4-yl)-2,6-difluorobenzyl)-6,7-dihydro-5H-pyrrolo[3,4-b]pyridin-5-one-7,7-d2], at human mAChR M1 [1], the EC50 worked out at 233 nM and the Emax was 66%. In addition, on human mAChR M1 [2], the “Agonist Activity Human M1 EC50” value is reported as “Inactive” and the Emax is 1%.

For the compound `[2H]C1([2H])c2ncccc2C(=O)N1Cc1c(F)cc(-c2ccc(C)c3nn(C)cc23)cc1OCC(C)C` [Compound 213, 6-(4-(2,7-dimethyl-2H-indazol-4-yl)-2-fluoro-6-isobutoxybenzyl)-6,7-dihydro-5H-pyrrolo[3,4-b]pyridin-5-one-7,7-d2], at human mAChR M1 [1], the EC50 was found to be 1520 nM and the Emax turned out to be 81%. On human mAChR M1 [2], the “Agonist Activity Human M1 EC50” value is reported as “Inactive” and the Emax turned out to be 3%.

In the case of `[2H]C1([2H])c2ncccc2C(=O)N1Cc1c(F)cc(-c2cccc3c2cnn3C([2H])([2H])[2H])cc1F` [Compound 67, 6-(2,6-difluoro-4-(1-(methyl-d3)-1H-indazol-4-yl)benzyl)-6,7-dihydro-5H-pyrrolo[3,4-b]pyridin-5-one-7,7-d2], at human mAChR M1 [1], the EC50 was 823 nM and the maximal effect (Emax) worked out at 71%. Moreover, at human mAChR M1 [2], the “Agonist Activity Human M1 EC50” value was “Inactive” and the Emax turned out to be 2%.

As for `[2H]C1([2H])c2ncccc2C(=O)N1Cc1ccc(-c2cc(F)cc3nn(C)cc23)cc1F` [Compound 71, 6-(2-fluoro-4-(6-fluoro-2-methyl-2H-indazol-4-yl)benzyl)-6,7-dihydro-5H-pyrrolo[3,4-b]pyridin-5-one-7,7-d2], on human mAChR M1 [1], the EC50 came out at 698 nM and the Emax is 75%. For the same compound, at human mAChR M1 [2], the “Agonist Activity Human M1 EC50” value is “Inactive” and the Emax turned out to be 1%.

With `[2H]C1([2H])c2ncccc2C(=O)N1Cc1ccc(-c2ccc(OC(C)C)c3nn(C)cc23)cc1F` [Compound 109, 6-(2-fluoro-4-(7-isopropoxy-2-methyl-2H-indazol-4-yl)benzyl)-6,7-dihydro-5H-pyrrolo[3,4-b]pyridin-5-one-7,7-d2], on human mAChR M1 [1], the concentration giving a half-maximal response (EC50) worked out at 167 nM and the Emax turned out to be 73%. Besides, on human mAChR M1 [2], the EC50 turned out to be 5.43 µM and the Emax was 17%.

As for `[2H]C1([2H])c2ncccc2C(=O)N1Cc1c(F)cc(-c2ccc(C(F)(F)F)c3nn(C)cc23)cc1OCC(C)C` [Compound 216, 6-(2-fluoro-6-isobutoxy-4-(2-methyl-7-(trifluoromethyl)-2H-indazol-4-yl)benzyl)-6,7-dihydro-5H-pyrrolo[3,4-b]pyridin-5-one-7,7-d2], at human mAChR M1 [1], the EC50 stood at 3180 nM and the Emax amounted to 83%. Also, on human mAChR M1 [2], the “Agonist Activity Human M1 EC50” value is on record as “Inactive” and the Emax was determined as 2%.

`[2H]C1([2H])c2ncccc2C(=O)N1Cc1c(F)cc(-c2ccc(C(F)(F)F)c3nn(C([2H])([2H])[2H])cc23)cc1F` [Compound 74, 6-(2,6-difluoro-4-(2-(methyl-d3)-7-(trifluoromethyl)-2H-indazol-4-yl)benzyl)-6,7-dihydro-5H-pyrrolo[3,4-b]pyridin-5-one-7,7-d2]: at human mAChR M1 [1], the EC50 worked out at 592 nM and the Emax stood at 81%. In addition, at human mAChR M1 [2], the “Agonist Activity Human M1 EC50” value is “Inactive” and the Emax is 1%.

For `[2H]C1([2H])c2ncccc2C(=O)N1Cc1c(F)cc(-c2ccc(C(F)(F)F)c3nn(C)cc23)cc1F` [Compound 41, 6-(2,6-difluoro-4-(2-methyl-7-(trifluoromethyl)-2H-indazol-4-yl)benzyl)-6,7-dihydro-5H-pyrrolo[3,4-b]pyridin-5-one-7,7-d2], on human mAChR M1 [1], the EC50 was 604 nM and the Emax turned out to be 65%. For the same compound, on human mAChR M1 [2], the “Agonist Activity Human M1 EC50” value is recorded as “Inactive” and the Emax was 2%.

Turning to `[2H]C1([2H])c2ncccc2C(=O)N1Cc1ccc(-c2ccc(OC)c3nn(C([2H])([2H])[2H])cc23)cc1C` [Compound 57, 6-(4-(7-methoxy-2-(methyl-d3)-2H-indazol-4-yl)-2-methylbenzyl)-6,7-dihydro-5H-pyrrolo[3,4-b]pyridin-5-one-7,7-d2], on human mAChR M1 [1], the concentration giving a half-maximal response (EC50) came to 288 nM and the Emax amounted to 87%. For the same compound, on human mAChR M1 [2], the “Agonist Activity Human M1 EC50” value is recorded as “Inactive” and the Emax is 4%.

With `[2H]C1([2H])c2ncccc2C(=O)N1Cc1ccc(-c2ccc(OCCOC3CC3)c3nn(C)cc23)cc1F` [Compound 154, 6-(4-(7-(2-cyclopropoxyethoxy)-2-methyl-2H-indazol-4-yl)-2-fluorobenzyl)-6,7-dihydro-5H-pyrrolo[3,4-b]pyridin-5-one-7,7-d2], at human mAChR M1 [1], the EC50 stood at 1090 nM and the Emax worked out at 77%. On human mAChR M1 [2], the EC50 was at least 10 µM and the Emax stood at 17%.
